Measurements: ChEMBL document CHEMBL1137832, “P1' oxadiazole protease inhibitors with excellent activity against native and protease inhibitor-resistant HIV-1” (Bioorg Med Chem Lett, 2004)

Legend:
[1] = target: T1, Human immunodeficiency virus type 1 protease (Human immunodeficiency virus 1, UniProt Q72874); assay: Inhibitory concentration against HIV-1 protease (NL4-3)
[2] = tested on: MT4; assay: Concentration required to inhibit spread of native HIV-1(4X) protease obtained from PI-resistant clinical isolate in MT-4 human T-lymphoid cells; type: functional; details: read-out: CIC95
[3] = tested on: MT4; assay: Concentration required to inhibit spread of native HIV-1(Q-60) protease obtained from PI-resistant clinical isolate in MT-4 human T-lymphoid cells; type: functional; details: read-out: CIC95
[4] = tested on: MT4; assay: Concentration required to inhibit spread of native HIV-1(K-60) protease obtained from PI-resistant clinical isolate in MT-4 human T-lymphoid cells; type: functional; details: read-out: CIC95
[5] = target: T1, Human immunodeficiency virus type 1 protease; assay: inhibitory concentration against HIV-1 protease from PI-resistant clinical isolate (V18)
[6] = tested on: MT4; assay: Concentration required to inhibit spread of native HIV-1(NL4-3) protease obtained from PI-resistant clinical isolate in MT-4 human T-lymphoid cells; type: functional; details: read-out: CIC95
[7] = tested on: MT4; assay: Concentration required to inhibit spread of native HIV-1(V18) protease obtained from PI-resistant clinical isolate in MT-4 human T-lymphoid cells; type: functional; details: read-out: CIC95

Compound | IC50 [1] | IC95 [2] | IC95 [3] | IC95 [4] | IC50 [5] | IC95 [6] | IC95 [7]
Cc1nnc(C[C@H](C[C@H](O)CN2CCN(C(C)(C)c3ncc(-c4ccc(F)cc4)o3)C[C@H]2C(=O)NCC(F)(F)F)C(=O)N[C@H]2CCOC[C@H]2O)o1 | 0.02 nM | 31 nM | 31 nM | 125 nM | 0.19 nM | 125 nM | 63 nM
CCCc1nnc(C[C@H](C[C@H](O)CN2CCN(C(C)(C)c3ncc(-c4ccc(F)cc4)o3)C[C@H]2C(=O)NCC(F)(F)F)C(=O)N[C@H]2CCOC[C@H]2O)o1 | 0.01 nM | 16 nM | ≤ 8 nM | 16 nM | 0.19 nM | 16 nM | 63 nM
COc1cncc(-c2cnc(C(C)(C)N3CCN(C[C@@H](O)C[C@@H](Cc4nnc(-c5ccccc5)o4)C(=O)N[C@H]4CCOC[C@H]4O)[C@H](C(=O)NCC(F)(F)F)C3)o2)c1 | 0.48 nM | 250 nM | 500 nM | 250 nM |  | 125 nM | < 1000 nM
Cc1nnc(C[C@H](C[C@H](O)CN2CCN(Cc3ccc(-c4ccc(Cl)cc4)o3)C[C@H]2C(=O)NCC(F)(F)F)C(=O)N[C@H]2CCOC[C@H]2O)o1 | < 0.01 nM | 31 nM | 31 nM | 31 nM |  | ≤ 63 nM | 63 nM
O=C(N[C@H]1CCOC[C@H]1O)[C@H](Cc1nnc(-c2ccccc2)o1)C[C@H](O)CN1CCN(Cc2ccc(-c3ccc(Cl)cc3)o2)C[C@H]1C(=O)NCC(F)(F)F | 0.01 nM | 125 nM | 63 nM | ≤ 8 nM |  | 15.6 nM | 250 nM
CCCc1nnc(C[C@H](C[C@H](O)CN2CCN(Cc3ccc(-c4ccc(Cl)cc4)o3)C[C@H]2C(=O)NCC(F)(F)F)C(=O)N[C@H]2CCOC[C@H]2O)o1 | < 0.01 nM | 31 nM | 16 nM | ≤ 8 nM |  | ≤ 8 nM | 125 nM
CCCc1nnc(C[C@H](C[C@H](O)CN2CCN(C(C)(C)c3ncc(-c4ccc(Cl)cc4)o3)C[C@H]2C(=O)NCC(F)(F)F)C(=O)N[C@H]2CCOC[C@H]2O)o1 | < 0.01 nM | ≤ 8 nM | ≤ 8 nM | 16 nM | 0.18 nM | ≤ 8 nM | 63 nM
COc1cncc(-c2cnc(C(C)(C)N3CCN(C[C@@H](O)C[C@@H](Cc4nnco4)C(=O)N[C@H]4CCOC[C@H]4O)[C@H](C(=O)NCC(F)(F)F)C3)o2)c1 | 0.24 nM |  |  |  | 7.4 nM |  | 
CC(C)(c1ncc(-c2ccc(Cl)cc2)o1)N1CCN(C[C@@H](O)C[C@@H](Cc2nnc(-c3ccccc3)o2)C(=O)N[C@H]2CCOC[C@H]2O)[C@H](C(=O)NCC(F)(F)F)C1 | < 0.01 nM | 16 nM | 16 nM | ≤ 8 nM | 0.18 nM | ≤ 8 nM | 125 nM
Cc1nnc(C[C@H](C[C@H](O)CN2CCN(C(C)(C)c3ncc(-c4ccc(Cl)cc4)o3)C[C@H]2C(=O)NCC(F)(F)F)C(=O)N[C@H]2CCOC[C@H]2O)o1 | 0.01 nM | 16 nM | ≤ 8 nM | 31 nM | 0.06 nM | 250 nM | 63 nM
CCCc1nnc(C[C@H](C[C@H](O)CN2CCN(C(C)(C)c3ncc(-c4cncc(OC)c4)o3)C[C@H]2C(=O)NCC(F)(F)F)C(=O)N[C@H]2CCOC[C@H]2O)o1 | 0.32 nM | 500 nM | 500 nM | 500 nM |  | 500 nM | < 1000 nM
CC(C)(c1ncc(-c2ccc(Cl)cc2)o1)N1CCN(C[C@@H](O)C[C@@H](Cc2nnco2)C(=O)N[C@H]2CCOC[C@H]2O)[C@H](C(=O)NCC(F)(F)F)C1 | < 0.01 nM | 31 nM | 31 nM | 63 nM | 0.04 nM | 125 nM | 63 nM
CC(C)(C)NC(=O)[C@@H]1CN(Cc2cccnc2)CCN1C[C@@H](O)C[C@@H](Cc1ccccc1)C(=O)N[C@H]1c2ccccc2C[C@H]1O |  | 400 nM | > 1000 nM | > 1000 nM |  | 50 nM | > 1000 nM
O=C(N[C@H]1CCOC[C@H]1O)[C@H](Cc1nnco1)C[C@H](O)CN1CCN(Cc2ccc(-c3ccc(Cl)cc3)o2)C[C@H]1C(=O)NCC(F)(F)F | 0.01 nM | 31 nM | 31 nM | 63 nM | 0.09 nM | 63 nM | 125 nM
COc1cncc(-c2cnc(C(C)(C)N3CCN(C[C@@H](O)C[C@@H](Cc4nnc(C)o4)C(=O)N[C@H]4CCOC[C@H]4O)[C@H](C(=O)NCC(F)(F)F)C3)o2)c1 | 0.4 nM | > 1000 nM | > 1000 nM | > 1000 nM | 15 nM | > 1000 nM | > 1000 nM
CC(C)(c1ncc(-c2ccc(F)cc2)o1)N1CCN(C[C@@H](O)C[C@@H](Cc2nnc(-c3ccccc3)o2)C(=O)N[C@H]2CCOC[C@H]2O)[C@H](C(=O)NCC(F)(F)F)C1 | 0.02 nM | 16 nM | 16 nM | ≤ 8 nM |  | ≤ 8 nM | 63 nM
CC(C)(c1ncc(-c2ccc(F)cc2)o1)N1CCN(C[C@@H](O)C[C@@H](Cc2nnco2)C(=O)N[C@H]2CCOC[C@H]2O)[C@H](C(=O)NCC(F)(F)F)C1 | 0.02 nM | 31 nM | 31 nM | 125 nM | 0.06 nM | 125 nM | 125 nM
